The source made the active and inactive calls.
Columns and labels:
Type in all cases: functional
[1] = molecular target: Mitogen-activated protein kinase 8 (Homo sapiens, UniProt P45983);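 further: value comes from one member of a kinome-wide kinase profiling panel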
[2] = molecular target: Serine/threonine-protein kinase pim-1 (Homo sapiens, UniProt P11309)
[3] = molecular target: Serine/threonine-protein kinase TAO1 (Homo sapiens, UniProt Q7L7X3)
[4] = molecular target: Mitogen-activated protein kinase 14 (Homo sapiens, UniProt Q16539);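 further: part of a kinome-wide panel, MAPK14 entry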
[5] = molecular target: Cyclin-dependent kinase 7 (Homo sapiens, UniProt P50613);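 further: value comes from a kinome-wide kinase profiling panel in which CDK7 is one member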
[6] = molecular target: ALK tyrosine kinase receptor (Homo sapiens, UniProt Q9UM73);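 further: ALK tested as one member of a kinase panel screen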
[7] = molecular target: Serine/threonine-protein kinase D3 (Homo sapiens, UniProt O94806);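 further: determined within a kinase panel screen, with PRKCN as the panel member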
[8] = molecular target: T1, Serine/threonine-protein kinase Chk1 (Homo sapiens, UniProt O14757);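 further: measured as one member of a kinome-wide kinase profiling panel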
T1 sequence (O14757 whole entry): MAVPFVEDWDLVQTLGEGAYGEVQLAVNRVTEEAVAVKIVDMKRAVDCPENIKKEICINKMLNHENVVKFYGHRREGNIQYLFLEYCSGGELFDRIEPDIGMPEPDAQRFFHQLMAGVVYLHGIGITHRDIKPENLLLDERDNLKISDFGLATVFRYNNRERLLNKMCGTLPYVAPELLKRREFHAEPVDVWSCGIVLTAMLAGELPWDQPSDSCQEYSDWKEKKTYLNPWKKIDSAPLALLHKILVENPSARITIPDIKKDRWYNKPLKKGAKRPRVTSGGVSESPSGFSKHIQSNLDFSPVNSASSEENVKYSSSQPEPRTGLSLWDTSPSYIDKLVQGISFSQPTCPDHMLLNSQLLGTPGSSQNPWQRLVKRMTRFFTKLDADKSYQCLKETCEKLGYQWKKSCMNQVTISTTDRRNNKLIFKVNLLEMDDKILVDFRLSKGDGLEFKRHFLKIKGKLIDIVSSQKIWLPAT

[9] = molecular target: Fibroblast growth factor receptor 1 (Homo sapiens, UniProt P11362)
[10] = molecular target: Glycogen synthase kinase-3 alpha (Homo sapiens, UniProt P49840);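 further: GSK3A result taken from a broad kinome-wide kinase panel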
Activin receptor type-1 = Activin receptor type-1 (Homo sapiens, UniProt Q04771); test: Navigating the Kinome. Panel member name: ACVR1
[11] = molecular target: Mitogen-activated protein kinase kinase kinase kinase 4 (Homo sapiens, UniProt O95819)
[12] = molecular target: Serine/threonine-protein kinase PAK 4 (Homo sapiens, UniProt O96013);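 further: value obtained within a kinome profiling panel in which PAK4 was one of the panel members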
[13] = molecular target: Tyrosine-protein kinase Lck (Homo sapiens, UniProt P06239);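 further: lck was assayed as one member of a kinase panel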
Activated CDC42 kinase 1 = Activated CDC42 kinase 1 (Homo sapiens, UniProt Q07912); test: Navigating the Kinome. Panel member name: ACK1
Focal adhesion kinase 1 = Focal adhesion kinase 1 (Homo sapiens, UniProt Q05397);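 further: measured as one member of a kinome panel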
[14] = molecular target: Tyrosine-protein kinase Fyn (Homo sapiens, UniProt P06241)
[15] = molecular target: Death-associated protein kinase 3 (Homo sapiens, UniProt O43293);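 further: measured as one member of a kinome-wide profiling panel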
[16] = molecular target: Cyclin-dependent kinase 8 (Homo sapiens, UniProt P49336); test: Navigating the Kinome. Panel member name: CDK8
[17] = molecular target: Tyrosine-protein kinase BTK (Homo sapiens, UniProt Q06187)
[18] = molecular target: T2, Tyrosine-protein kinase JAK3 (Homo sapiens, UniProt P52333)
T2 sequence (P52333 whole entry): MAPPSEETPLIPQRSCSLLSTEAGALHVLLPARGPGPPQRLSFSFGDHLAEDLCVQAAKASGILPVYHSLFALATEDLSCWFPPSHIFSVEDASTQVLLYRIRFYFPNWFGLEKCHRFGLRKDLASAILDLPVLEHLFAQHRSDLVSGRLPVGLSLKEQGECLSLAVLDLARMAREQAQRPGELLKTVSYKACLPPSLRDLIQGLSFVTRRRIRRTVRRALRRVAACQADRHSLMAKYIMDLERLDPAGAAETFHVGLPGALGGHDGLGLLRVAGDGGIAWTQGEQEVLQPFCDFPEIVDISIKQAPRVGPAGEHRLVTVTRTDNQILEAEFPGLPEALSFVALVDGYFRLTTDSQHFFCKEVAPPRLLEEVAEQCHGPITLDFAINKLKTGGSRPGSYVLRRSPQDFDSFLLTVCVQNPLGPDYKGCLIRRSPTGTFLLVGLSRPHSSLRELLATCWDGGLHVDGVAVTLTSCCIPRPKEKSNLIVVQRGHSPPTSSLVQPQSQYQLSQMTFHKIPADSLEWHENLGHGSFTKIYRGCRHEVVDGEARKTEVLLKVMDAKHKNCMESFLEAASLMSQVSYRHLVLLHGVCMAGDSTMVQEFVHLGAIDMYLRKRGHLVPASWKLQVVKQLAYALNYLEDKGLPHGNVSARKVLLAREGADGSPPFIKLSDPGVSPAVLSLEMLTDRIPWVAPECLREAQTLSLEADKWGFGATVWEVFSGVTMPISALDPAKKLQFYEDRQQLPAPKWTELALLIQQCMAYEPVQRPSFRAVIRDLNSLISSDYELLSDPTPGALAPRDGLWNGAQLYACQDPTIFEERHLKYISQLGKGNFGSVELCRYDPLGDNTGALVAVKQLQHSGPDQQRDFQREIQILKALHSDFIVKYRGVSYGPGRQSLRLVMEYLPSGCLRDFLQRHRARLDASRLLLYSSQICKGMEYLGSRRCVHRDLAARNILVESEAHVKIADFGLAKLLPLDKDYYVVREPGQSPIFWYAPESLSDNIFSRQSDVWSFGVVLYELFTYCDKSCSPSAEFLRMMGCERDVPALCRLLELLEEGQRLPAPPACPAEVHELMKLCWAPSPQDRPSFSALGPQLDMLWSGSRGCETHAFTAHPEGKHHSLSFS

[19] = molecular target: Dual specificity protein kinase CLK2 (Homo sapiens, UniProt P49760)
[20] = molecular target: Calcium/calmodulin-dependent protein kinase type II subunit alpha (Homo sapiens, UniProt Q9UQM7); test: Navigating the Kinome. Panel member name: CAMK2A
[21] = molecular target: Casein kinase I isoform alpha (Homo sapiens, UniProt P48729)
[22] = molecular target: G protein-coupled receptor kinase 5 (Homo sapiens, UniProt P34947); test: Navigating the Kinome. Panel member name: GPRK5
Aurora kinase B = Aurora kinase B (Homo sapiens, UniProt Q96GD4)
[23] = molecular target: DNA dC->dU-editing enzyme APOBEC-3G (Homo sapiens, UniProt Q9HC16); test: SAR analysis of small molecule inhibitors of APOBEC3G DNA Deaminase via a fluorescence-based single-stranded DNA deaminase assay - Set 2.; conditions: read-out: IC50_Mean
[24] = molecular target: DNA dC->dU-editing enzyme APOBEC-3A (Homo sapiens, UniProt P31941); test: SAR analysis of small molecule inhibitors of APOBEC3A DNA Deaminase via a fluorescence-based single-stranded DNA deaminase assay - Set 2.; conditions: read-out: IC50_Mean
[25] = molecular target: Calcium/calmodulin-dependent protein kinase type II subunit delta (Homo sapiens, UniProt Q13557)
[26] = molecular target: Calcium/calmodulin-dependent protein kinase type II subunit gamma (Homo sapiens, UniProt Q13555)
[27] = molecular target: Serine/threonine-protein kinase pim-3 (Homo sapiens, UniProt Q86V86);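 further: value obtained as one member of a broad kinase panel profiling effort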
[28] = molecular target: Calcium/calmodulin-dependent protein kinase type II subunit beta (Homo sapiens, UniProt Q13554)
[29] = molecular target: Interleukin-1 receptor-associated kinase 1 (Homo sapiens, UniProt P51617);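 further: IRAK1 tested as one member of a kinome panel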
[30] = molecular target: Neuropeptides B/W receptor type 1 (Homo sapiens, UniProt P48145); test: human NPBW1 receptor blockade, IC50 – cell-based, fluorescence, dose response, set 5, late-stage follow-up (AID 588566)
[31] = molecular target: Melanin-concentrating hormone receptor 1 (Homo sapiens, UniProt Q99705); test: Late-stage fluorescence-based counterscreen for antagonists of the G-protein coupled receptor 7 (GPR7): cell-based dose response assay to identify antagonists of the melanin-concentrating hormone receptor 1 (MCHR1) Set 5.
[32] = loss of viability in HepG2 cells – cell-based, CellTiter-Glo, cherry-picked, cytotoxicity control for Shn3 inhibitor project, dose response (AID 624134)
Aurora kinase A = Aurora kinase A (Homo sapiens, UniProt O14965);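 further: value from the Navigating the Kinome kinase panel profiling, panel entry STK6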
[33] = molecular target: Tyrosine-protein kinase SYK (Homo sapiens, UniProt P43405)
[34] = viability of uninfected HEp-2 cells – cell-based, HTS, cytotoxicity control for RSV inhibitor project, dose response (AID 2410); conditions: human respiratory syncytial virus
[35] = molecular target: Mitogen-activated protein kinase 13 (Homo sapiens, UniProt O15264)
[36] = molecular target: cAMP-dependent protein kinase catalytic subunit PRKX (Homo sapiens, UniProt P51817)
[37] = molecular target: Testis-specific serine/threonine-protein kinase 1 (Homo sapiens, UniProt Q9BXA7)
[38] = molecular target: STE20-like serine/threonine-protein kinase (Homo sapiens, UniProt Q9H2G2)
[39] = reduction of Shn3 3'UTR-driven luciferase in osteoblasts – cell-based, Clone20 osteoblasts, firefly luciferase, cherry-picked, dose response (AID 624132);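 further: firefly luciferase luminescence from reporter carrying the Shn3 3'UTR in osteoblasts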
[40] = molecular target: Maternal embryonic leucine zipper kinase (Homo sapiens, UniProt Q14680)
[41] = molecular target: Testis-specific serine/threonine-protein kinase 2 (Homo sapiens, UniProt Q96PF2);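 further: part of the Navigating the Kinome panel, target entry STK22B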
[42] = molecular target: Tyrosine-protein kinase ITK/TSK (Homo sapiens, UniProt Q08881);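 further: affinity for ITK measured as one member of a broad kinase panel profiling binding across the kinome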
[43] = molecular target: cAMP-dependent protein kinase catalytic subunit alpha (Homo sapiens, UniProt P17612)
[44] = molecular target: Tyrosine-protein kinase Fer (Homo sapiens, UniProt P16591);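 further: FER tested as one member of a kinome panel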
[45] = molecular target: Serine/threonine-protein kinase pim-2 (Homo sapiens, UniProt Q9P1W9);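 further: value comes from a broad kinase panel profiling study in which PIM2 was one of the panel members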
[46] = non-specific 3'UTR reporter inhibition in Clone20-Shn3RL – cell-based, Renilla luciferase, cherry-picked, counter-screen for Shn3 inhibitor project, dose response (AID 624133)
[47] = molecular target: Sphingosine 1-phosphate receptor 4 (Homo sapiens, UniProt O95977); test: Late-stage fluorescence-based dose-response cell-based counterscreen assay to identify agonists of the Sphingosine 1-Phosphate Receptor 3 (S1P3): Sphingosine 1-Phosphate Receptor 4 (S1P4) agonist assay.
[48] = Late-stage assay provider results from the probe development effort to identify agonists of the Sphingosine 1-Phosphate Receptor 3 (S1P3): luminescence-based cell-based dose response counterscreen assay to determine cytotoxicity of agonist compounds.
[49] = molecular target: Sphingosine 1-phosphate receptor 5 (Homo sapiens, UniProt Q9H228); test: Late-stage fluorescence-based dose-response cell-based counterscreen assay to identify agonists of the Sphingosine 1-Phosphate Receptor 3 (S1P3): Sphingosine 1-Phosphate Receptor 5 (S1P5) agonist assay.
[50] = molecular target: Sphingosine 1-phosphate receptor 2 (Homo sapiens, UniProt O95136); test: Late-stage fluorescence-based dose-response cell-based counterscreen assay to identify agonists of the Sphingosine 1-Phosphate Receptor 3 (S1P3): Sphingosine 1-Phosphate Receptor 2 (S1P2) agonist assay.

Sequence of Focal adhesion kinase 1 (Q05397 whole entry): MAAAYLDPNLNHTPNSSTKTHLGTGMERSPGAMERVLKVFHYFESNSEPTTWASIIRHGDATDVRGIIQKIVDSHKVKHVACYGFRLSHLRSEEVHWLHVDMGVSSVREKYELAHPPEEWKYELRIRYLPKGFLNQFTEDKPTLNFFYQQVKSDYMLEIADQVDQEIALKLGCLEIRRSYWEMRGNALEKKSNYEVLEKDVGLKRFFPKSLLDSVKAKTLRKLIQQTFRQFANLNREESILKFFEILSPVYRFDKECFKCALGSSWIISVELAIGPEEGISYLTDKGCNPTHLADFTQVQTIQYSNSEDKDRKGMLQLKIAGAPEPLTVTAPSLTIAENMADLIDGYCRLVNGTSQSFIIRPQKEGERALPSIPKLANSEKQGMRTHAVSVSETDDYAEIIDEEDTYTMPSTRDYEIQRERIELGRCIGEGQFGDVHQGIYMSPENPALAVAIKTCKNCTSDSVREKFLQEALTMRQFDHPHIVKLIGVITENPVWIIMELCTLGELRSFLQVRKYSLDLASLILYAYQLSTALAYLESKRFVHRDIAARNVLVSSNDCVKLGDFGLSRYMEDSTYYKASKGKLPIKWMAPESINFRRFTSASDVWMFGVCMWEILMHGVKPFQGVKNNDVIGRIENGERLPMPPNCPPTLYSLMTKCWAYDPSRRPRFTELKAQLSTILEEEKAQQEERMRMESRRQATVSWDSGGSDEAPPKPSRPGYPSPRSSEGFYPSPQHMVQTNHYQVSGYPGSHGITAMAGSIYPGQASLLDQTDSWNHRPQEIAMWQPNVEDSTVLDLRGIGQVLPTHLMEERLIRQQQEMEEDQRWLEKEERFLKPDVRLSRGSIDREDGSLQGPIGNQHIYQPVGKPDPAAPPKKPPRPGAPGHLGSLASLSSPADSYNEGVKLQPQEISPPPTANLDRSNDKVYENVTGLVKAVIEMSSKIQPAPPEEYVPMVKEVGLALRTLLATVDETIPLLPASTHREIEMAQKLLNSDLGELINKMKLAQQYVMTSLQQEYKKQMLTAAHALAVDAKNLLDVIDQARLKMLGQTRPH
Sequence of Serine/threonine-protein kinase pim-1 (P11309 whole entry): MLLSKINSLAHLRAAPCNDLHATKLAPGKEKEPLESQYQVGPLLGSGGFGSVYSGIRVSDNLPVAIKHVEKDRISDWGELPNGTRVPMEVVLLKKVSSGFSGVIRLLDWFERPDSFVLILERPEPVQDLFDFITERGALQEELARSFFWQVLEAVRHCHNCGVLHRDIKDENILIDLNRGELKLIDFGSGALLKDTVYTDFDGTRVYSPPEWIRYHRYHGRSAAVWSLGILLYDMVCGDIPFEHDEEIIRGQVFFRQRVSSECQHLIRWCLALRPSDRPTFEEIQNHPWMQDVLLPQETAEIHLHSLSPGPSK
Sequence of Cyclin-dependent kinase 8 (P49336 whole entry): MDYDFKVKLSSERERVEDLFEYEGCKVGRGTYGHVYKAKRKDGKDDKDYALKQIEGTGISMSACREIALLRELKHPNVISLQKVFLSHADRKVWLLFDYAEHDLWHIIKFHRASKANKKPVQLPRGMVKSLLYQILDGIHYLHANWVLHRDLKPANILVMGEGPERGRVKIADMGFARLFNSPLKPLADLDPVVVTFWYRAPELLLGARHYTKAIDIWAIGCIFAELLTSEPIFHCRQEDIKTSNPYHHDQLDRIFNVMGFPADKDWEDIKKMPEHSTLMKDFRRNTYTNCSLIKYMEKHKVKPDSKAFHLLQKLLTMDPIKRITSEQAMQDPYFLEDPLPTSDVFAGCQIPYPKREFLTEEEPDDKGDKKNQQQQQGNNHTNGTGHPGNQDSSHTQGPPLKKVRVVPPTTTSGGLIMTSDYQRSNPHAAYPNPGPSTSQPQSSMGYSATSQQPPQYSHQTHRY
Sequence of Dual specificity protein kinase CLK2 (P49760 whole entry): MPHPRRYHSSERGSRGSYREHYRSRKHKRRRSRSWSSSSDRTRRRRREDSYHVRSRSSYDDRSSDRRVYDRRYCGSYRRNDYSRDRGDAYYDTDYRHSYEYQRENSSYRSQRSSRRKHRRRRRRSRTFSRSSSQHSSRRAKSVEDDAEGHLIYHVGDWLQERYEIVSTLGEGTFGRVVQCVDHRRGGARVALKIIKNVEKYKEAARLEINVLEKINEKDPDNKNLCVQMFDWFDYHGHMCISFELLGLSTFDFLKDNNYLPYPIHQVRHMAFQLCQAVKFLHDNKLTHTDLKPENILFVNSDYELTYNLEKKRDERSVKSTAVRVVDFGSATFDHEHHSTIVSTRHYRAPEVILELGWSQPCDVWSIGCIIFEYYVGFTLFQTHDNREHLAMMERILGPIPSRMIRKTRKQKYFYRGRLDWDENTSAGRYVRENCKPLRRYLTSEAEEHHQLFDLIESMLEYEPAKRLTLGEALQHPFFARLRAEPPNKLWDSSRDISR
Sequence of Glycogen synthase kinase-3 alpha (P49840 whole entry): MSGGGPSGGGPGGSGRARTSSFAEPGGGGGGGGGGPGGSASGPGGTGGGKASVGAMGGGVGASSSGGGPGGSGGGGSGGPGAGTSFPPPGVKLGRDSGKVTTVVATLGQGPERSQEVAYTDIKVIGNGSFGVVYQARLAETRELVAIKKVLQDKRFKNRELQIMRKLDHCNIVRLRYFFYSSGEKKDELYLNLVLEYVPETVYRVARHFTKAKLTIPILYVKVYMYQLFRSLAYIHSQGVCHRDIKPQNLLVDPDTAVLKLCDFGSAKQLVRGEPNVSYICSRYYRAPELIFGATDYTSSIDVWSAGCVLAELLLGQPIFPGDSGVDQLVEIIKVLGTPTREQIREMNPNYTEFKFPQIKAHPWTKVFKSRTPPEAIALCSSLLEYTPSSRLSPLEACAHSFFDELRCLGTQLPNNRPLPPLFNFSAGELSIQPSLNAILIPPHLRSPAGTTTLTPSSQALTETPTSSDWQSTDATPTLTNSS
Sequence of Testis-specific serine/threonine-protein kinase 2 (Q96PF2 whole entry): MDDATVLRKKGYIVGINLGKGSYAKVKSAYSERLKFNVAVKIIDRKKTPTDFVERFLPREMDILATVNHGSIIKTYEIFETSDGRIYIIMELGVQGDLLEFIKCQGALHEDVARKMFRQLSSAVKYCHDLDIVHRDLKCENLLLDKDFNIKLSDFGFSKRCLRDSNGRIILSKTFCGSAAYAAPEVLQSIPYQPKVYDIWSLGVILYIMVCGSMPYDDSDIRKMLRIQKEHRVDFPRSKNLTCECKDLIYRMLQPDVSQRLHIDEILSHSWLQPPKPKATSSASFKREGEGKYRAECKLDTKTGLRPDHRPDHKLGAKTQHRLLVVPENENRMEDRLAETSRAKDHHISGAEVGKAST
Sequence of Calcium/calmodulin-dependent protein kinase type II subunit alpha (Q9UQM7 whole entry, canonical isoform): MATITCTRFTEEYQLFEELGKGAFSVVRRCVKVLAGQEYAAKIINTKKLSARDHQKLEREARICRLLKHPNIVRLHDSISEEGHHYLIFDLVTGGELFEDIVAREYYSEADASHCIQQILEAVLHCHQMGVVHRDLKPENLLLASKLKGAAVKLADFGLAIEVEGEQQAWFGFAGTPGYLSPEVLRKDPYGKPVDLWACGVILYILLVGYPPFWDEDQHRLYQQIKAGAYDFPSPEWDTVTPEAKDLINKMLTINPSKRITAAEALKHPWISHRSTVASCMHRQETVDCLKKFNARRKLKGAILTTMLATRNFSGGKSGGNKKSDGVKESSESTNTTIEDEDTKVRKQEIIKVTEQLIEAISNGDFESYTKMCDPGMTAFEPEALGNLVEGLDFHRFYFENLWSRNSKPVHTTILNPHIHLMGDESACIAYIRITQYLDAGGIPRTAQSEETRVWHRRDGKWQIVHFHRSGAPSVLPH
Sequence of Tyrosine-protein kinase BTK (Q06187 whole entry): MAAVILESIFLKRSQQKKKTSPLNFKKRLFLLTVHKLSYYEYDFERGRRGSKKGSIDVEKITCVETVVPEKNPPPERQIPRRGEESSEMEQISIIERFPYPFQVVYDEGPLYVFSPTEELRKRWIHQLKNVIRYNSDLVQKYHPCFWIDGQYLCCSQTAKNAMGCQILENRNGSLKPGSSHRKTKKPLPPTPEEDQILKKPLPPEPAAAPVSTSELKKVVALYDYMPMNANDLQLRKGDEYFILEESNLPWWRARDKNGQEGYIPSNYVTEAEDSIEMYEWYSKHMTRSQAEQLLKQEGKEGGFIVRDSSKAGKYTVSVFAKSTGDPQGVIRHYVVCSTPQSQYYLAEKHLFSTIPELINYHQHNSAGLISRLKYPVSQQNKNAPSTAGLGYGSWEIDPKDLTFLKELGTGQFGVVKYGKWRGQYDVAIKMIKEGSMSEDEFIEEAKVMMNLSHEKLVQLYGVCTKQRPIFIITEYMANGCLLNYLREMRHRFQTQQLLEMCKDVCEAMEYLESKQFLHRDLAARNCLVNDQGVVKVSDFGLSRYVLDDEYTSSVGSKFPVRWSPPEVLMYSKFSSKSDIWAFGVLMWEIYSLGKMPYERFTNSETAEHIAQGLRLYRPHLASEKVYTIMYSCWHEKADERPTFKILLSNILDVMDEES
Sequence of Tyrosine-protein kinase Lck (P06239 whole entry): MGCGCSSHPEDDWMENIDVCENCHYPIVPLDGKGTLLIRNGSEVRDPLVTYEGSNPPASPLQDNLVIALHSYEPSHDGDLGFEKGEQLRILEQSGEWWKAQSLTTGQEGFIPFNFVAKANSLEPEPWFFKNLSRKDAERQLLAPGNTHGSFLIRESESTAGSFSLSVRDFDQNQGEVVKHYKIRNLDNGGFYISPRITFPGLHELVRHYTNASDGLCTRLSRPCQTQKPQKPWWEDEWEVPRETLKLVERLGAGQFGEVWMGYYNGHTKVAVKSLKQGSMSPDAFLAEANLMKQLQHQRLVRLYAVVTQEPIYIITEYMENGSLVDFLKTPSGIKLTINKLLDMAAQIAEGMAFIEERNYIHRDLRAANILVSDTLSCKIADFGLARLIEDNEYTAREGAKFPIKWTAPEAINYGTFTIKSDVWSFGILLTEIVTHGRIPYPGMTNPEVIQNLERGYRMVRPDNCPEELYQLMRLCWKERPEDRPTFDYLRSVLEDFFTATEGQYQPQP

With CCOC(=O)Cc1nc2c(N)cccc2[nH]1 the Ki [1] was > 5.01 µM (inactive), the Ki [2] was > 6.31 µM (inactive) and the Ki [3] was > 6.31 µM (inactive). The Ki [4] was > 3.98 µM (inactive), the Ki [5] was > 3.98 µM (inactive) and the Ki [6] was > 6.31 µM (inactive). The Ki [7] was > 3.98 µM (inactive), the Ki [8] was 0.398 µM (active) and the Ki [9] was > 3.98 µM (inactive). For the same molecule, the Ki [10] was > 3.98 µM (inactive), the Ki (Activin receptor type-1) was > 3.98 µM (inactive) and the Ki [11] was > 5.01 µM (inactive). For the same molecule, the Ki [12] was > 5.01 µM (inactive), the Ki [13] was > 6.31 µM (inactive) and the Ki (Activated CDC42 kinase 1) was > 3.98 µM (inactive). The Ki (Focal adhesion kinase 1) was > 6.31 µM (inactive), the Ki [14] was > 6.31 µM (inactive) and the Ki [15] was > 5.01 µM (inactive). The Ki [16] was > 3.98 µM (inactive), the Ki [17] was > 6.31 µM (inactive) and the Ki [18] was > 5.01 µM (inactive). The Ki [19] was > 3.98 µM (inactive), the Ki [20] was > 3.98 µM (inactive) and the Ki [21] was > 3.98 µM (inactive). The Ki [22] was > 3.98 µM (inactive) and the Ki (Aurora kinase B) was > 3.98 µM (inactive).

In the case of CSc1nnc2n(CCC(C)C)c(=O)c3ccccc3n12, the IC50 [23] is reported as > 99 µM (inactive) and the IC50 [24] is reported as > 99 µM (inactive).

In the case of CCOC(=O)c1cn(-c2ccc(O)cc2C)c2cc(-c3ccccc3)ccc2c1=O, the Ki [2] is reported as 1.26 µM (active), the Ki [25] is reported as 5.01 µM (active) and the Ki [26] is reported as 3.98 µM (active). For the same molecule, the Ki [27] was 3.16 µM (active), the Ki [28] was 5.01 µM (active) and the Ki [29] was 7.94 µM (active).

With Cn1ccc2ccc(Oc3c(Cl)cnn(Cc4cccc5ccccc45)c3=O)cc21 the IC50 [30] was 3.19 µM (active) and the IC50 [31] was > 20 µM (inactive).

For Cc1ccc(-c2nn(C(C)(C)C)c3ncnc(N)c23)cc1, the AC50 [32] was > 70 µM (inactive), the Ki (Aurora kinase A) was > 1.58 µM (inactive) and the Ki [33] was > 1.58 µM (inactive). The CC50 [34] was 9.91 µM (active), the Ki [35] was > 7.94 µM (inactive) and the Ki [36] was > 1.58 µM (inactive). For the same molecule, the Ki [37] was > 1.58 µM (inactive), the Ki [38] was 1.58 µM (active) and the AC50 [39] was 5.89 µM (active). For the same molecule, the Ki [40] was > 1.58 µM (inactive), the Ki [41] was > 1.58 µM (inactive) and the Ki [42] was > 1.58 µM (inactive). For the same molecule, the Ki [43] was 1.58 µM (active), the Ki (Focal adhesion kinase 1) was > 1.58 µM (inactive) and the Ki [44] was > 1.58 µM (inactive). The Ki [45] was > 1.58 µM (inactive), the Ki [18] was > 1.58 µM (inactive) and the AC50 [46] was 1.97 µM (active).

With O=C(c1cc(C2CC2)on1)N(C1CCCCC1)C1CCCCC1 the EC50 [47] was > 50 µM (inactive), the CC50 [48] was > 10 µM (inactive) and the EC50 [49] was > 25 µM (inactive). For the same molecule, the EC50 [50] was > 50 µM (inactive).
